Test results: patent US7169753B2, “Chlorophyll and bacteriochlorophyll esters, their preparation and pharmaceutical compositions comprising them” (Yeda Research and Development Co. Ltd., priority 1999, dated 2007)

Test system: M2R melanoma cells
Experiment: Photodynamic activity in monolayer cell culture (phototoxicity to melanoma cells)
Type: cell-based
Conditions: mouse M2R melanoma cells, 4 hrs dark incubation, irradiation 600–1300 nm; for phototoxicity to M2R melanoma cells (result in words): viability by [3H]-thymidine incorporation, formed aggregates in the liposomes
Description: Liposome Preparation L-α-Dipalmitoylphosphatidylcholine (DPPC) liposomes as carrier system for pigments insoluble in water were prepared according to Toledano, 1998 and to Cuomo et al. 1990. […] (≅130 μg) of the photosensitizer and 5 mg DPPC were dissolved in 400 μl chloroform. Onto this were layered 250 μl H2O and 250 μl phosphate buffer (pH=7,2; 1,5 mM KH2PO4; 7,6 mM Na2HPO4; 0,15 M NaCl). The chloroform was removed within 5 min with a rapid stream of argon, while the mixture was sonicated and maintained at 45° C. Sonication was continued for another 20 min and the liposomes loaded with pigment were recovered in the supernatant after centrifugation (16 000×g, 10 min). The liposome concentration was determined photometrically at 750 nm (according to Grossweiner and Grossweiner, 1982). Photodynamic Activity in Monolayer Cell Culture M2R melanoma cells (mice) were cultivated as monolayers in 96-well microtiter-plates in DMEM (Dulbecco's modified Eagle's medium)/F12 1/1 (v/v) at 37° C. in a moist atmosphere containing 8% CO2. The medium (pH 7.4) was supplemented with HEPES buffer (25 mM), fetal-bovine-serum (FBS) (10%), glutamine (2 mM), penicillin (0.06 mg/ml) and streptomycin (0.1 mg/ml). Within 24 hrs, the cell density increased from 1×10^4 to 2×10^4 cell/100 μl. Increasing amounts of the liposome preparation containing the BChl-derivative were added to the cells. (Pd-BPheid-ser or Pd-BPheid-Nglc were added as ethanolic solution (10^−4 M) such that the maximum concentration of ethanol was <1%). The cells were first kept in the dark for 4 hrs, washed with 100 μl of the medium, treated with 100 μl of fresh medium, and then irradiated from below through the bottom of the plates with a russian BS LS3-PDT lamp, fitted with a filter (600–1300 nm). A light-dose of 10 mW x s x cm^−2 was provided during an irradiation time of […]. After an additional 24 h in the dark at 37° C., cell viability was determined by microscopic inspection (cell size and shape) and via [^3H]-thymidine incorporation into the DNA (Chen et al. 1988). […]

Row | Substance | phototoxicity to M2R melanoma cells (result in words) | LD90 (phototoxicity) (viability by [3H]-thymidine incorporation after 24 h, sensitizers in DPPC liposomes (Pd-BPheid-ser as ethanolic solution)) [µM]
1 | Pd-bacteriopheophorbide a-17^3-N-glucosamide [Pd-BPheid-Nglc] | ineffective | 
2 | 13^3-tert.-butyl-benzyl-Pd-bacteriopheophorbide-a-17^3-tert-butyl-benzyl ester [tbb-Pd-BPheid-tbb] | ineffective | 
3 | 13^3-tert-butyl-benzyl-Pd-bacteriopheophorbide-a-17^3-methyl ester [tbb-Pd-Bpheid-me] |  | 1.1
